Results reported in patent publication US12371454B2, “Cyclic peptide compound having Kras inhibitory action” (priority 2019, dated 2025).
Starred links: 1 amine or outer side, 2 acyl side, 3 side chain; linkers in the order of their positions; H or OH if unused. Positions of bridges follow the written chain, without caps; N, C: chain ends. Non-standard residues stand in square brackets, D forms with d. Residues, ends and D or L forms follow the SMILES beside them. *: point of attachment. hPhe(3-Cl-4-CF3) = N[C@@H](CCc1ccc(C(F)(F)F)c(Cl)c1)C(=O)O; hPhe(4-CF3) = N[C@@H](CCc1ccc(C(F)(F)F)cc1)C(=O)O; NMePhe(4-CN) = CN[C@@H](Cc1ccc(C#N)cc1)C(=O)O; NMePhe(4-Cl) = CN[C@@H](Cc1ccc(Cl)cc1)C(=O)O; X35 = CN([C@@](C)(Cc1ccccc1)C(=O)[*:2])[*:1]; NMePhe(4-Me) = CN[C@@H](Cc1ccc(C)cc1)C(=O)O; NMePhe(2-Cl) = CN[C@@H](Cc1ccccc1Cl)C(=O)O; Phe(3-Cl) = N[C@@H](Cc1cccc(Cl)c1)C(=O)O; NMeGly(cPent) = CN[C@H](C(=O)O)C1CCCC1; Phe(3-I) = N[C@@H](Cc1cccc(I)c1)C(=O)O; NMeY = CN[C@@H](Cc1ccc(O)cc1)C(=O)O; NMeCha = CN[C@@H](CC1CCCCC1)C(=O)O; NMeChg = CN[C@H](C(=O)O)C1CCCCC1; NMeF = CN[C@@H](Cc1ccccc1)C(=O)O; NMeI = CC[C@H](C)[C@H](NC)C(=O)O; NMeD = CN[C@@H](CC(=O)O)C(=O)O; NMeL = CN[C@@H](CC(C)C)C(=O)O; NMeV = CN[C@H](C(=O)O)C(C)C; d(β3hA) = C[C@@H](N)CC(=O)O; NMeA = CN[C@@H](C)C(=O)O; Nle = CCCC[C@H](N)C(=O)O; Piperidide = C1CCN(*)CC1; Pyrrolidide = C1CCN(*)C1; dNMeA = CN[C@H](C)C(=O)O; Ac5c = NC1(C(=O)O)CCCC1; Aze = O=C(O)[C@@H]1CCN1; NEtG = CCNCC(=O)O; Sar = CNCC(=O)O

The molecules below were run against T1, Kras and SOS1 (biotin-tagged human Kras loaded with GDP, His-tagged human SOS1) (Homo sapiens, UniProt P01116, G12D) (assay: Protein-protein interaction inhibition between Kras and SOS1 (KrasGl2D-SOS PPI) using AlphaScreen). Conditions: AlphaScreen; biotin-tagged human Kras loaded with GDP, His-tagged human SOS1; read-out: KRAS G12D-SOS PPI IC50.
T1 construct: made in house; host or cells: E. coli (stated for Kras only)
Format: binding
Procedure, shortened: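 Energy transfer from nickel-chelate donor beads bound to His-SOS1 to streptavidin acceptor beads bound to biotin-Kras, expressed in E. coli and loaded with GDP after purification, was monitored. Donors were excited at 680 nm; singlet oxygen reaching acceptors gave emission read at 520-620 nm.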

T1 sequence (P01116 1-188 isoform P01116-2 G12D): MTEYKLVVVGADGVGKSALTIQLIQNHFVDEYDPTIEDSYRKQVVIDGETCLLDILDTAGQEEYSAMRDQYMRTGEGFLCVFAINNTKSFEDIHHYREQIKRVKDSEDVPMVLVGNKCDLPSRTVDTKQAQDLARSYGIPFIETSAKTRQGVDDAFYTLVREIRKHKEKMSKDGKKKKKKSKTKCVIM

| Structure (SMILES) | IC50 |
| --- | --- |
| CC[C@H](C)[C@@H]1NC(=O)[C@H](CC(C)C)N(C)C(=O)C[C@@H](C(=O)N2CCCCC2)N(C)C(=O)[C@H](C(C)C)N(C)C(=O)C2(CCCC2)NC(=O)[C@@H]2CCCN2C(=O)[C@H](CCc2ccc(C(F)(F)F)c(Cl)c2)NC(=O)CN(C)C(=O)[C@H](Cc2ccc(C#N)cc2)N(C)C(=O)CN(C)C(=O)CN(C)C1=O [Compound 867] ([NMeL]I[Sar][Sar][NMePhe(4-CN)][Sar][hPhe(3-Cl-4-CF3)]P[Ac5c][NMeV][NMeD]-Piperidide; lactam N-11) | 3.4 nM |
| CC[C@H](C)[C@@H]1NC(=O)[C@H](C)N(C)C(=O)C[C@@H](C(=O)N2CCCCC2)NC(=O)[C@H](CC(C)C)N(C)C(=O)[C@H](Cc2ccccc2)N(C)C(=O)[C@H](CC(C)C)NC(=O)[C@H](Cc2cccc(I)c2)NC(=O)CN(C)C(=O)[C@H](Cc2ccc(Cl)cc2)N(C)C(=O)CN(C)C(=O)CN(C)C1=O [Compound 637] ([NMeA]I[Sar][Sar][NMePhe(4-Cl)][Sar][Phe(3-I)]L[NMeF][NMeL]D-Piperidide; lactam N-11) | 26 nM |
| CC[C@H](C)[C@@H]1NC(=O)[C@H](C)N(C)C(=O)C[C@@H](C(=O)N2CCCCC2)N(C)C(=O)[C@H](C(C)C)N(C)C(=O)C2(CCCC2)NC(=O)[C@@H]2CCCN2C(=O)[C@H](CCc2ccc(C(F)(F)F)c(Cl)c2)NC(=O)CN(C)C(=O)[C@H](CC2CCCCC2)N(C)C(=O)[C@@H]2CCN2C(=O)[C@H](C2CCCCC2)N(C)C1=O [Compound 1622] ([NMeA]I[NMeChg][Aze][NMeCha][Sar][hPhe(3-Cl-4-CF3)]P[Ac5c][NMeV][NMeD]-Piperidide; lactam N-11) | 130 nM |
| CC[C@H](C)[C@@H]1NC(=O)[C@H](C)N(C)C(=O)C[C@@H](C)NC(=O)[C@H](C(C)C)N(C)C(=O)C2(CCCC2)NC(=O)[C@@H]2CCCN2C(=O)[C@H](CCc2ccc(C(F)(F)F)c(Cl)c2)NC(=O)[C@@H](C)N(C)C(=O)[C@H](Cc2ccccc2)N(C)C(=O)CN(C)C(=O)CN(C)C1=O [Compound 1691] (cyclo([Ac5c][NMeV][d(β3hA)][NMeA]I[Sar][Sar][NMeF][dNMeA][hPhe(3-Cl-4-CF3)]P)) | 120 nM |
| CC[C@H](C)[C@@H]1NC(=O)[C@H](C)N(C)C(=O)C[C@@H](C(=O)N2CCCC2)NC(=O)[C@H](C(C)C)N(C)C(=O)[C@H](Cc2ccccc2)N(C)C(=O)[C@H](Cc2ccccc2)NC(=O)[C@H](Cc2cccc(Cl)c2)NC(=O)CN(CC)C(=O)[C@H](Cc2ccc(Cl)cc2)N(C)C(=O)CN(C)C(=O)CN(C)C1=O [Compound 29] ([NMeA]I[Sar][Sar][NMePhe(4-Cl)][NEtG][Phe(3-Cl)]F[NMeF][NMeV]D-Pyrrolidide; lactam N-11) | 320 nM |
| CCCC[C@@H]1NC(=O)[C@H](Cc2cccc(I)c2)NC(=O)CN(C)C(=O)[C@H](Cc2ccc(OC)cc2)N(C)C(=O)CN(C)C(=O)CN(C)C(=O)[C@H]([C@@H](C)CC)NC(=O)[C@H](CC(C)C)N(C)C(=O)C[C@@H](C(=O)N2CCCCC2)N(C)C(=O)[C@H](CC(C)C)NC(=O)[C@](C)(Cc2ccccc2)N(C)C1=O [Compound 125] ([NMeL]I[Sar][Sar][NMeY](Me)[Sar][Phe(3-I)][Nle][X35]L[NMeD]-Piperidide; lactam N-11) | 2.8 nM |
| CC[C@H](C)[C@@H]1NC(=O)[C@H](CC(C)C)N(C)C(=O)C[C@@H](C)NC(=O)[C@H](CC(C)C)N(C)C(=O)C2(CCCC2)NC(=O)[C@@H]2CCCN2C(=O)[C@H](CCc2ccc(C(F)(F)F)cc2)NC(=O)CN(C)C(=O)[C@H](CC2CCCCC2)N(C)C(=O)CN(C)C(=O)CN(C)C1=O [Compound 414] (cyclo([Ac5c][NMeL][d(β3hA)][NMeL]I[Sar][Sar][NMeCha][Sar][hPhe(4-CF3)]P)) | 110 nM |
| CC[C@H](C)[C@@H]1NC(=O)[C@H](C)N(C)C(=O)C[C@@H](C)NC(=O)[C@H](C2CCCC2)N(C)C(=O)C2(CCCC2)NC(=O)[C@@H]2CCCN2C(=O)[C@H](CCc2ccc(C(F)(F)F)c(Cl)c2)NC(=O)CN(C)C(=O)[C@H](Cc2ccccc2Cl)N(C)C(=O)[C@@H]2CCCN2C(=O)CN(C)C1=O [Compound 82] (cyclo([Ac5c][NMeGly(cPent)][d(β3hA)][NMeA]I[Sar]P[NMePhe(2-Cl)][Sar][hPhe(3-Cl-4-CF3)]P)) | 140 nM |
| CC[C@H](C)[C@@H]1NC(=O)[C@H](C)N(C)C(=O)C[C@@H](C(=O)N(C)C)N(C)C(=O)[C@H]([C@@H](C)CC)N(C)C(=O)C2(CCCC2)NC(=O)[C@H](Cc2ccc(C#N)cc2)N(C)C(=O)[C@H](CCc2ccc(C(F)(F)F)c(Cl)c2)NC(=O)CN(C)C(=O)[C@H](Cc2ccc(C)cc2)N(C)C(=O)[C@@H]2CCN2C(=O)[C@H](C)N(C)C1=O [Compound 1959] ([NMeA]I[NMeA][Aze][NMePhe(4-Me)][Sar][hPhe(3-Cl-4-CF3)][NMePhe(4-CN)][Ac5c][NMeI][NMeD]-NMe2; lactam N-11) | 5.2 nM |
